Data from patent US6514692B2, “Method for treatment of immunodeficiency virus infection” (priority 1996, dated 2003).
Values joined by “and” are separate entries in the source; they are usually repeats but may differ in a detail not shown here. Equal entries are not always repeated. Where no end group is shown, it is not given here.

Columns and labels:
[1] = in vitro; conditions: human, ME180 cells
Source text: (§1) ME180 cells, a cervical epithelial cell line, were obtained from the American Type Culture Collection. These cells were thawed from liquid nitrogen and grown in RPMI 1640 medium supplemented with 10t fetal bovine serum, glutamine and antibiotics. The cells were adherent and were trypsinized (0.5% trypsin in HBSS) to remove them from the flask for passaging and use in assays. For use in the microtiter transmission inhibition assay, ME180 cells were trypsinized, washed and seeded in 96-well flat bottom microtiter plates (COSTAR) at a density of 5×10^3 cells per well. The cells were incubated at 37° C. for 24 hours prior to the tart of the assay. H9 cells chronically infected with he SK1 isolate of HIV-1 were treated with 200 μg/ml mitomycin C for 60 minutes at 37° C. After treatment the cells were washed three times with tissue culture medium. The chronically infected lymphocytes were added to each well at a density of 2×10^4 cells per well. The concentration of mitomycin C used in the treatment of the lymphocytes was chosen to allow lymphocyte survival for the period of time required to transmit virus to the uninfected ME180 cells, but to die prior to the time of assay so as not to contribute to the p24 signal used as the endpoint (see below). In the transmission assay the lytic peptides D4E1 and D2A21, with and without 150 μg/ml pig mucin, were added prior to the addition of chronically infected cells or were mixed with the chronically infected cells prior to their addition to the monolayer of ME180 cells. Mucin was included because it is an abundant constituent of the normal vaginal secretions of a human being, thus any chemotherapeutic agent targeting HIV should be active in its presence if it is to have clinical value. […] The lymphocytes and peptide were co-cultured with the ME180 cells for 6 hours and then removed by washing the ME180 monolayer four times with PBS. The plate was then incubated at 37° C. for six days. Medium was removed and changed every 48 hours during the incubation stage. No further peptide was added after the initial dose. At six days post-co-cultivation, the supernatant was removed from the wells and evaluated for the quantity of p24 antigen by ELISA. The ELISA was performed according to the manufacturer's recommendations. The amount of virus production in wells treated with various concentrations of the peptides was evaluated with appropriate cell and virus controls. Data are reported as a percent of virus control at each drug concentration. Linear regression analysis was used to calculate the […] and IC95 concentrations of the transmission inhibitor. […] TI represents the toxicity index, which is the ratio of the TC50/IC50, and is an indication of the relative concentrations window that exists between efficacy and toxicity.

[2] = test system: ME180 cells; assay: toxicity (XTT) in transmission inhibition assay; conditions: for TOXICITY VALUES (XTT), single samples: samples 1-3
Source text: as §1

[3] = 0.32 μg/ml, with 150 μg/ml pig mucin
[4] = 1 μg/ml, with 150 μg/ml pig mucin
[5] = 3.2 μg/ml, with 150 μg/ml pig mucin
[6] = 10 μg/ml, with 150 μg/ml pig mucin
[7] = 32 μg/ml, with 150 μg/ml pig mucin
[8] = 100 μg/ml, with 150 μg/ml pig mucin

FKLRAKIKVRLRAKIKL [D4E1]
viability at 6 h, 0.32 µg/mL [1]: 98.6% | viability at 6 h, 1 µg/mL [1]: 99.2% | viability at 6 h, 3.2 µg/mL [1]: 95.4% | viability at 6 h, 10 µg/mL [1]: 97.7% | viability at 6 h, 32 µg/mL [1]: 100% | viability at 6 h, 100 µg/mL [1]: 27.1% | TOXICITY VALUES (XTT), MEAN ([2]; 0.32 μg/ml, no mucin): 0.521 O.D. @ 450/650 nm | TOXICITY VALUES (XTT), single samples ([2]; 0.32 μg/ml, no mucin): 0.518 O.D. @ 450/650 nm and 0.528 O.D. @ 450/650 nm and 0.516 O.D. @ 450/650 nm | TOXICITY VALUES (XTT), MEAN [2, 3]: 0.521 O.D. @ 450/650 nm | TOXICITY VALUES (XTT), single samples [2, 3]: 0.518 O.D. @ 450/650 nm and 0.528 O.D. @ 450/650 nm | TOXICITY VALUES (XTT), MEAN ([2]; 1 μg/ml, no mucin): 0.523 O.D. @ 450/650 nm | TOXICITY VALUES (XTT), single samples ([2]; 1 μg/ml, no mucin): 0.535 O.D. @ 450/650 nm and 0.523 O.D. @ 450/650 nm and 0.511 O.D. @ 450/650 nm | TOXICITY VALUES (XTT), MEAN [2, 4]: 0.523 O.D. @ 450/650 nm | TOXICITY VALUES (XTT), single samples [2, 4]: 0.535 O.D. @ 450/650 nm and 0.523 O.D. @ 450/650 nm and 0.511 O.D. @ 450/650 nm | TOXICITY VALUES (XTT), MEAN ([2]; 3.2 μg/ml, no mucin): 0.503 O.D. @ 450/650 nm | TOXICITY VALUES (XTT), single samples ([2]; 3.2 μg/ml, no mucin): 0.486 O.D. @ 450/650 nm and 0.513 O.D. @ 450/650 nm | TOXICITY VALUES (XTT), MEAN [2, 5]: 0.503 O.D. @ 450/650 nm | TOXICITY VALUES (XTT), single samples [2, 5]: 0.486 O.D. @ 450/650 nm and 0.513 O.D. @ 450/650 nm | TOXICITY VALUES (XTT), MEAN ([2]; 10 μg/ml, no mucin): 0.515 O.D. @ 450/650 nm | TOXICITY VALUES (XTT), single samples ([2]; 10 μg/ml, no mucin): 0.493 O.D. @ 450/650 nm and 0.526 O.D. @ 450/650 nm and 0.524 O.D. @ 450/650 nm | TOXICITY VALUES (XTT), MEAN [2, 6]: 0.515 O.D. @ 450/650 nm | TOXICITY VALUES (XTT), single samples [2, 6]: 0.493 O.D. @ 450/650 nm and 0.526 O.D. @ 450/650 nm and 0.524 O.D. @ 450/650 nm | TOXICITY VALUES (XTT), MEAN ([2]; 32 μg/ml, no mucin): 0.529 O.D. @ 450/650 nm | TOXICITY VALUES (XTT), single samples ([2]; 32 μg/ml, no mucin): 0.551 O.D. @ 450/650 nm and 0.513 O.D. @ 450/650 nm and 0.524 O.D. @ 450/650 nm | TOXICITY VALUES (XTT), MEAN [2, 7]: 0.529 O.D. @ 450/650 nm | TOXICITY VALUES (XTT), single samples [2, 7]: 0.551 O.D. @ 450/650 nm and 0.513 O.D. @ 450/650 nm and 0.524 O.D. @ 450/650 nm | TOXICITY VALUES (XTT), MEAN ([2]; 100 μg/ml, no mucin): 0.143 O.D. @ 450/650 nm | TOXICITY VALUES (XTT), single samples ([2]; 100 μg/ml, no mucin): 0.138 O.D. @ 450/650 nm and 0.162 O.D. @ 450/650 nm and 0.128 O.D. @ 450/650 nm | TOXICITY VALUES (XTT), MEAN [2, 8]: 0.143 O.D. @ 450/650 nm | TOXICITY VALUES (XTT), single samples [2, 8]: 0.138 O.D. @ 450/650 nm and 0.162 O.D. @ 450/650 nm and 0.128 O.D. @ 450/650 nm
